{"source": "paper PMC3341351", "about": "“Down-Regulation of GABAA Receptor via Promiscuity with the Vasoactive Peptide Urotensin II Receptor. Potential Involvement in Astrocyte Plasticity” (PLoS ONE, 2012)", "system": "β3 GABAAR subunit in human U87 glioma", "experiment": "Cell surface ELISA of β3 GABAAR subunit in U87 glioma", "format": "cell-based", "details": "hUII 10^−8 M, 30 min, 37°C, at least 3 independent experiments in triplicates", "experimental": "The human cell line from glioblastoma U87 was obtained from the American Type Culture Collection (LGC Standards, Molsheim, France). U87 cells were maintained in DMEM containing 10% FBS and 1% sodium pyruvate. NHA-Astrocytes (Lonza, Walkersville, MD, USA) were cultivated in DMEM culture medium supplemented with 2 mM glutamine, 5 mM HEPES, 1% non essential amino acids, 1% sodium pyruvate, B27, 25 ng/ml EGF, 1% of the antibiotic-antimycotic solution and 10% FBS. All cells were incubated at 37°C in a humidified atmosphere containing 5% CO2. Culture media were replaced every three days.\nCells were plated at 50 000 cells/well in 96-well plates coated with 0.1 mg/ml poly-L-ornithine (Sigma-Aldrich). […] Cells were fixed with 4% PFA in PBS for 5 min at RT, washed in PBS, and then permeabilized in 0.05% triton X100 (only for permeabilized cells) and non specific binding were blocked with PBS containing 1% FBS for 30 min at RT. […] The cells were washed four times with PBS, a colorimetric alkaline phosphatase substrate was added (SuperSignal ELISA, Thermo scientific, Fisher) and the resulting color reaction was measured using a Viktor multilabel plate reader (PerkinElmer, Courtaboeuf, France). Background absorbance from samples transfected with non-tagged receptors or from cells without first antibodies were systematically measured. […]"}
{"sequence": "ETPDCFWKYCV (disulfide) [hUII, human urotensin II, synthesized by solid phase methodology]", "values": [{"measurement": "β3-associated GABAAR subunit internalization, without UT319–389", "result": 20, "unit": "%"}]}
